Measured values taken from patent US20090253794A1, “Fibroblast Activator, Collagen Production Promoter, Collagen Contraction Promoter, Hyaluronic Acid Production Promoter, ATP Production Promoter, Melanin Formation Inhibitor, and Agent for External Application to the Skin” (priority 2005, published 2009).
Marks after values point to notes of the source that are not given here.

What was measured:
normal human fibroblasts = test: hyaluronic acid production promoting effect and cell count; assay type: cell-based; conditions: 72 hr; for number of cells: negative control 5.4 × 10^5; for amount of hyaluronic acid produced: negative control = 100, n=3 average
Procedure: The number of cells of normal human fibroblasts was adjusted to 5.0×10^4 cells/mL in Medium 106S medium containing 2% FBS, and plated on a 24 well plate by 1.0 mL. The cell was cultured under an atmosphere of 95% (V/V) air-5% (V/V) carbon dioxide gas at 37° C. for 24 hr, and then Medium 106S medium (free of FBS) containing various concentrations of conagenin was added. After further culture for 72 hr, the culture supernatant was collected, and the concentration of hyaluronic acid released into the medium was measured by an inhibitory method (hyaluronic acid measurement kit, manufactured by SEIKAGAKU CORPORATION) utilizing a hyaluronic acid-binding protein. The method of operation was as indicated in the attached explanation insert. The results obtained using PBS as a negative control instead of conagenin was taken as 100 and the amount ratio of hyaluronic acid in the medium was calculated.

[1] = tested on: normal human skin fibroblasts; test: collagen gel contraction promoting effect; assay type: cell-based; conditions: one week, negative control = 1
Procedure: A collagen solution (collagen was used trade name I-AC manufactured by KOUKEN Co., Ltd.) dissolved in normal human skin fibroblasts (manufactured by KURABO INDUSTRIES LTD., 1×10^5 cells/ml) was prepared on ice according to the explanation insert attached to the product, and the collagen was gelled in 6 wells at 37° C. Thereafter, 0.25% FBS/DMEM medium containing a sample ([…]) was added. The gel was detached from the dish wall, and the level of contraction of the gelled collagen was examined. As a positive control, DMEM medium containing 10% FBS instead of 0.25% FBS was used. The medium was changed every 2 days and, one week later, the medium was removed by suction. The diameter of the collagen gel was measured, the area was calculated, and the area ratio was compared to that of the negative control as 1.

[2] = tested on: normal human skin fibroblasts; test: ATP production promotion (ATP Lite luminescence); assay type: cell-based; conditions: for ATP amount (average ATP amount without addition of sample is 100): 48 hr, n = 4, mean ± standard deviation
Procedure: The evaluation was performed according to the following procedure. Normal human skin fibroblasts (manufactured by KURABO INDUSTRIES LTD.) were plated on a 96 well microplate at 2.0×10^4 cells per well. As the medium for plating, commercially available Medium 106S (manufactured by KURABO INDUSTRIES LTD.) containing 2% FBS, heparin 10 μg/ml and hydrocortisone 1 μg/ml was used. After culture for 24 hr, the medium was changed to a medium supplemented with various concentrations of conagenin, and the cells were cultured for 48 hr.
Then, the medium was removed from the 96 well microplate, and the amount of ATP synthesized in the cell was measured using a ATP measurement kit (ATP Lite, manufactured by PerkinElmer, Inc.). That is, the cells were washed with PBS(−), the cell membrane was lysed with a Lysis solution, a luminescence substrate was added, and the mixture was transferred to a black 96 well microplate (View Plate). The chemical luminescence was measured with a luminometer. The effect of the sample was evaluated using, as an index, the average ATP amount without addition of the sample as 100. For statistical processing, parametric multiple comparison (Dunnett Type) relative to control group without addition of the sample was performed, wherein a risk rate of less than 5% is indicated with *, a risk rate of less than 1% is indicated with ** and a risk rate of less than 0.1% is indicated with ***.

[3] = tested on: mouse B16 melanoma strain; test: melanin formation amount after L-DOPA incubation (absorbance 495 nm), cells of Example 7; assay type: cell-based; conditions: FIG. 1; cells of Example 7 (0.1, 1.0, 10 mM); absorbance at 495 nm
Procedure: To the cells recovered in Example 7 was added 100 μl of cell suspension (PBS buffer containing Triton X-100 at 0.1% (v/v)). After thorough suspending, the suspension was stood at 4° C. for 1 hr. Thereto was added 100 μl of 10 mM L-DOPA (manufactured by Nacalai Tesque), and the mixture was incubated at 37° C. for 1 hr. Thereafter, the absorbance at 495 nm was measured by a plate reader (multiscanplus MKII, manufactured by Japan Flow Laboratory), and the melanin formation amount was measured.

B16 melanoma cells = test: melanin formation suppression test, visual whitening and cell mass volume; assay type: cell-based, mouse; design: key to level of whitening: whitening high→++; whitening moderate→+; somewhat whitened→+−; no whitening→−; conditions: 5 days; for level of whitening: visual evaluation; for change in cell mass volume: visual, cytotoxicity index
Procedure: A melanin formation suppression test was performed as follows using mouse melanoma cells. First, 2×10^4 B16 melanoma cells were plated in a 35 mm diameter dish containing Eagle's minimum nutrition medium (3 ml) supplemented with 10% (v/v) fetal bovine serum, and cultured in a carbon dioxide incubator adjusted to 5% (v/v) carbon dioxide gas at 37° C. for about 24 hr. Then, pure water or a sample dissolved in pure water was added thereto to a final concentration of 0.1 mM, 1.0 mM or 10 mM. As a positive control, kojic acid (manufactured by Sigma Ltd.) was added to the same concentration. The cells were cultured for 5 more days under the same conditions, treated with trypsin, and centrifuged to collect the cells in a 1.5 ml Eppendorf. The level of whitening of the cells was visually evaluated, and indicated: whitening high→++; whitening moderate→+; somewhat whitened→+−; no whitening→−. Simultaneously, changes in the cell mass volume was visually evaluated and used as a cytotoxicity index.

For `C[C@@H]([C@@H](C)O)[C@@H](O)C(=O)N[C@@](C)(CO)C(=O)O` [conagenin, (2S)—N-[(2R,3S,4R)2,4-dihydroxy-3-methyl-pentanoyl]-2-methylserine], the number of cells (normal human fibroblasts; 1 μM) was 5.3 × 10^5, the “amount of hyaluronic acid produced” value (normal human fibroblasts; 1 μM) was 108 and the number of cells (normal human fibroblasts; 10 μM) was 5.5 × 10^5. The “amount of hyaluronic acid produced” value (normal human fibroblasts; 10 μM) was 120, the number of cells (normal human fibroblasts; 100 μM) was 5.3 × 10^5 and the “amount of hyaluronic acid produced” value (normal human fibroblasts; 100 μM) was 132. For the same molecule, the number of cells (normal human fibroblasts; 1 mM) was 5.1 × 10^5, the “amount of hyaluronic acid produced” value (normal human fibroblasts; 1 mM) was 147 and the number of cells (normal human fibroblasts; 5 mM) was 4.0 × 10^5. For the same molecule, the “amount of hyaluronic acid produced” value (normal human fibroblasts; 5 mM) was 199, the “collagen gel area ratio” value ([1]; 1 μM in 0.25% FBS/DMEM) was 0.47 and the “collagen gel area ratio” value ([1]; 100 μM in 0.25% FBS/DMEM) was 0.44. The “collagen gel area ratio” value ([1]; 5 mM in 0.25% FBS/DMEM) was 0.42, the “ATP amount (average ATP amount without addition of sample is 100)” value ([2]; 0.20 μM) was 120 ± 18 and the “ATP amount (average ATP amount without addition of sample is 100)” value ([2]; 0.39 μM) was 146 ± 30***. The “ATP amount (average ATP amount without addition of sample is 100)” value ([2]; 0.78 μM) was 128 ± 8*, the “ATP amount (average ATP amount without addition of sample is 100)” value ([2]; 1.56 μM) was 133 ± 8** and the “ATP amount (average ATP amount without addition of sample is 100)” value ([2]; 3.13 μM) was 150 ± 20***. For the same molecule, the “ATP amount (average ATP amount without addition of sample is 100)” value ([2]; 6.25 μM) was 155 ± 26***, the “ATP amount (average ATP amount without addition of sample is 100)” value ([2]; 12.5 μM) was 160 ± 7*** and the “ATP amount (average ATP amount without addition of sample is 100)” value ([2]; 25 μM) was 153 ± 4***. The “ATP amount (average ATP amount without addition of sample is 100)” value ([2]; 50 μM) was 168 ± 13***, the “ATP amount (average ATP amount without addition of sample is 100)” value ([2]; 100 μM) was 164 ± 16*** and the “concentration at which a statistically significant ATP production promoting action was observed” value ([2]; Dunnett comparison with the group without addition) was “not less than 0.39 μM”. The melanin formation amount [3] was “suppresses melanin formation at a low concentration”, the level of whitening (B16 melanoma cells; 0.1 mM) was “+” and the “change in cell mass volume” value (B16 melanoma cells; 0.1 mM) was “none”. For the same molecule, the level of whitening (B16 melanoma cells; 1 mM) was “++”, the “change in cell mass volume” value (B16 melanoma cells; 1 mM) was “none” and the level of whitening (B16 melanoma cells; 10 mM) was “++”. The “change in cell mass volume” value (B16 melanoma cells; 10 mM) was “none”.
